Data: patent US8993566B2, “Quinoline compound composing 1,2,4-triazine-dione and use thereof” (Wuhan Shengyun Biopharma Co., Ltd., priority 2012, dated 2015)
Converted amounts (≈) assume the structure as drawn.

Columns and labels:
[1] = test system: human nonsmall-cell lung cancer cell H460; experiment: In vitro anti-tumor cell activity (MTT), H460; type: cell-based; conditions: H460 cells, MTT, 72 h, Bliss method; for IC50: Homo sapiens, NCI-H460, read-out: H460 IC50
Procedure, shortened: (§1)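 Cells seeded at 10^4 cells/well and grown 24 h were exposed to compounds for 72 h. Viability was read by MTT (0.5 mg/mL, 4 h) with formazan dissolved in DMSO, and IC50 was derived by the Bliss method.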

[2] = test system: human colon cancer cell HT-29; experiment: In vitro anti-tumor cell activity (MTT), HT-29; type: cell-based; conditions: HT-29 cells, MTT, 72 h, Bliss method; for IC50: Homo sapiens, read-out: HT-29 IC50
Procedure, shortened: as §1

[3] = test system: human gastric cancer cell MKN-45; experiment: In vitro anti-tumor cell activity (MTT), MKN-45; type: cell-based; conditions: MKN-45 cells, MTT, 72 h, Bliss method; for IC50: Homo sapiens, read-out: MKN-45 IC50
Procedure, shortened: as §1

[4] = test system: human hepatoma carcinoma cell line SMMC-7721; experiment: In vitro anti-tumor cell activity (MTT), SMMC-7721; type: cell-based; conditions: SMMC-7721 cells, MTT, 72 h, Bliss method; for IC50: Homo sapiens, read-out: SMMC-7721 IC50
Procedure, shortened: as §1

[5] = biological target: T1, c-Met kinase (His-tagged recombinant human Met (amino acids 974-end)) (Homo sapiens, UniProt P08581); experiment: c-Met Enzyme Activity Inhibition Assay (ELISA); type: biochemical; conditions: 50 pM c-Met, 5 μM ATP, room temperature 20 min; for IC50: read-out: IC50 for inhibiting c-Met kinase (converted)
T1 construct: His-tagged recombinant human Met (amino acids 974-end); His
T1 sequence (P08581 956-1390): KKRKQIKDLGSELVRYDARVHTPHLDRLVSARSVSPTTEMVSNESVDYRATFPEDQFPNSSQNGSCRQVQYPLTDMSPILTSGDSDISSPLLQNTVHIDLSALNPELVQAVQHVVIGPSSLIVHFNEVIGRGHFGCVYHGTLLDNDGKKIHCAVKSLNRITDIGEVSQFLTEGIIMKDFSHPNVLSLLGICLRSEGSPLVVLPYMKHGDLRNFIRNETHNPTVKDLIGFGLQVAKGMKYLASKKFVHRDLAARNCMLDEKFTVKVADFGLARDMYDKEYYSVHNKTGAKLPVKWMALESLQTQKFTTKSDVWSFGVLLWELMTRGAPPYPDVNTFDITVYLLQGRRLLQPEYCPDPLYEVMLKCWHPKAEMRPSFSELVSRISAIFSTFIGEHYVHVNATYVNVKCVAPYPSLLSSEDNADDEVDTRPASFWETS
Procedure, shortened: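 Baculovirus-expressed His-tagged c-Met (974-end) at 50 pM with 5 μM ATP, 25 mM MOPS pH 7.4, MgCl2, MnCl2, vanadate, DTT, 1% DMSO, incubated 20 min at room temperature on POT-coated plate. Phosphorylated polymer detected with HRP-conjugated PY20 antibody, TMB read at 450 nm.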

Compound	IC50 [1]	IC50 [2]	IC50 [3]	IC50 [4]	IC50 [5]	H460 IC50 [1]	HT-29 IC50 [2]	MKN-45 IC50 [3]	SMMC-7721 IC50 [4]	IC50 for inhibiting c-Met kinase [5]
N-[3-fluoro-4-[6-methoxy-7-[3-(4-methyl-1-piperazinyl)propyloxy]quinolin]-4-oxy]phenyl]-2-(3,4-difluorophenyl)-4-benzyl]-3,5-dicarbonyl-2,3,4,5-tetrahydro-1,2,4-triazine-6-carboxamide [Example 45]						0.34 µg/mL	0.28 µg/mL	0.05 µg/mL	1.1 µg/mL	2.72 µg/mL
N-[3-fluoro-4-[7-methoxy-6-[3-(4-methyl-1-piperidinyl)propyloxy]quinolin-4-oxy]phenyl]-2-(2-trifluoromethylphenyl)-4-allyl-3,5-dioxo-2,3,4,5-tetrahydro-1,2,4-triazine-6-carboxamide [Example 36]						1.7 µg/mL	0.43 µg/mL	0.21 µg/mL	2.4 µg/mL	1.1 µg/mL
N-[3-fluoro-4-[6-methoxy-7-[3-(1-piperidinyl)propyloxy]quinolin]-4-oxy]phenyl]-2-(2-fluorophenyl)-4-allyl-3,5-dicarbonyl-2,3,4,5-tetrahydro-1,2,4-triazine-6-carboxamide [Example 40]						1.0 µg/mL	0.26 µg/mL	0.05 µg/mL	3.1 µg/mL	5.1 µg/mL
N-[3-fluoro-4-[6-methoxy-7-[3-(1-pyrrolidyl)propyloxy]quinolin]-4-oxy]phenyl]-2-(4-fluorophenyl)-4-allyl-3,5-dicarbonyl-2,3,4,5-tetrahydro-1,2,4-triazine-6-carboxamide [Example 42]						1.1 µg/mL	0.77 µg/mL	0.11 µg/mL	0.92 µg/mL	1.63 µg/mL
N-[3-fluoro-4-[6-methoxy-7-[3-(4-methyl-1-piperazinyl)propyloxy]quinolin]-4-oxy]phenyl]-2-(3-trifluoromethylphenyl)-4-benzyl-3,5-dicarbonyl-2,3,4,5-tetrahydro-1,2,4-triazine-6-carboxamide [Example 47]						1.1 µg/mL	0.09 µg/mL	0.4 µg/mL	3.7 µg/mL	5.92 µg/mL
COc1cc2c(Oc3ccc(NC(=O)c4nn(-c5ccccc5)c(=O)n(C)c4=O)cc3F)ccnc2cc1OCCCN1CCN(C)CC1 [Example 5, N-[3-fluoro-4-[6-methoxy-7-[3-(4-methyl-1-piperazinyl)propyloxy]oxy]phenyl)-2-phenyl-4-methyl-3,5-dioxo-2,3,4,5-tetrahydro-1,2,4-triazine-6-carboxamide]						0.094 µg/mL	0.12 µg/mL	0.12 µg/mL	0.15 µg/mL	0.28 µg/mL
N-[3-fluoro-4-[7-methoxy-6-[3-(4-morpholinyl)propyloxy]quinolin-4-oxy]phenyl]-2-(3-trifluoromethylphenyl)-4-butyl-3,5-dicarbonyl-2,3,4,5-tetrahydro-1,2,4-triazine-6-carboxamide [Example 34]						0.028 µg/mL	0.11 µg/mL	0.013 µg/mL	0.18 µg/mL	0.017 µg/mL
COc1cc2c(Oc3ccc(NC(=O)c4nn(-c5ccc(Br)cc5)c(=O)n(C)c4=O)cc3F)ccnc2cc1OCCCN1CCCCC1 [Example 7]						0.13 µg/mL	0.27 µg/mL	0.033 µg/mL	0.21 µg/mL	0.048 µg/mL
C=CCn1c(=O)c(C(=O)Nc2ccc(Oc3ccnc4cc(OCCCN5CCOCC5)c(OC)cc34)c(F)c2)nn(-c2ccc(Br)cc2)c1=O [Example 39]						1.4 µg/mL	0.83 µg/mL	0.19 µg/mL	2.1 µg/mL	1.8 µg/mL
N-[3-fluoro-4-[6-methoxy-7-[3-(1-pyrrolidyl)propyloxy]quinolin-4-oxy]phenyl]-2-(3-trifluoromethylphenyl)-4-methyl-3,5-dicarbonyl-2,3,4,5-tetrahydro-1,2,4-triazine-6-carboxamide [Example 21]						0.24 µg/mL	0.13 µg/mL	0.0002 µg/mL	0.32 µg/mL	0.13 µg/mL

Further lines, with some results ahead:

IC50 [1]	IC50 [2]	IC50 [3]	IC50 [4]	IC50 [5]	Compound	H460 IC50 [1]	HT-29 IC50 [2]	MKN-45 IC50 [3]	SMMC-7721 IC50 [4]	IC50 for inhibiting c-Met kinase [5]
0.17 µg/mL (≈ 0.248 µM)	0.21 µg/mL (≈ 0.306 µM)	0.065 µg/mL (≈ 0.0947 µM)	0.09 µg/mL (≈ 0.131 µM)	233 nM	COc1cc2c(Oc3ccc(NC(=O)c4nn(-c5ccc(F)cc5)c(=O)n(C)c4=O)cc3F)ccnc2cc1OCCCN1CCC(C)CC1 [Example 9, N-[3-fluoro-4-[6-methoxy-7-[3-(4-methyl-1-piperidinyl)propyloxy]quinolin-4-oxy]phenyl]-2-(4-fluorophenyl)-4-methyl-3,5-dioxo-2,3,4,5-tetrahydro-1,2,4-triazine-6-carboxamide]					
0.33 µg/mL (≈ 0.489 µM)	0.28 µg/mL (≈ 0.415 µM)	0.077 µg/mL (≈ 0.114 µM)	0.42 µg/mL (≈ 0.623 µM)	623 nM	COc1cc2c(Oc3ccc(NC(=O)c4nn(-c5ccc(F)cc5)c(=O)n(C)c4=O)cc3F)ccnc2cc1OCCCN1CCOCC1 [Example 8, N-[3-fluoro-4-[6-methoxy-7-[3-(4-morpholinyl)propyloxy]quinolin-4-oxy]phenyl]-2-(4-fluorophenyl)-4-methyl-3,5-dioxo-2,3,4,5-tetrahydro-1,2,4-triazine-6-carboxamide]					
0.23 µg/mL (≈ 0.333 µM)	0.18 µg/mL (≈ 0.26 µM)	0.0053 µg/mL (≈ 0.00767 µM)	0.58 µg/mL (≈ 0.839 µM)	59.3 nM	COc1cc2c(Oc3ccc(NC(=O)c4nn(-c5ccc(Cl)cc5)c(=O)n(C)c4=O)cc3F)ccnc2cc1OCCCN1CCOCC1 [Example 27, N-[3-fluoro-4-[6-methoxy-7-[3-(4-morpholinyl)propyloxy]quinolin-4-oxy]phenyl]-2-(4-chlorophenyl)-4-methyl-3,5-dioxo-2,3,4,5-tetrahydro-1,2,4-triazine-6-carboxamide]					
1.1 µg/mL (≈ 1.56 µM)	0.24 µg/mL (≈ 0.341 µM)	0.23 µg/mL (≈ 0.326 µM)	0.74 µg/mL (≈ 1.05 µM)	766 nM	COc1cc2c(Oc3ccc(NC(=O)c4nn(-c5ccc(F)c(F)c5)c(=O)n(C)c4=O)cc3F)ccnc2cc1OCCCN1CCC(C)CC1 [Example 19, N-[3-fluoro-4-[6-methoxy-7-[3-(4-methylpiperidin-1-yl)propyloxy]quinolin-4-oxy]phenyl]-2-(3,4-difluorophenyl)-4-methyl-3,5-dioxo-2,3,4,5-tetrahydro-1,2,4-triazine-6-carboxamide]					
